Here are results for 1 molecule from patent publication US20150343016A1, “CHEMICAL ENTITIES AND THERAPEUTIC USES THEREOF” (The Regents of the University of Colorado, a body corporate, priority 2010, published 2015).

Assay [1] deals with grp (Chk1) mutant Drosophila larvae. Kind of assay: Drosophila larval survival to adulthood (eclosion), drug with and without IR, grp (Chk1) mutants. The class given is in vivo. The following applies: for manner in which drug and radiation act together: grp (Chk1) mutants. The protocol:
(§1) To validate the identification of Bouvardin from the primary screen, the effect of this molecule on Drosophila larvae alone or in combination with radiation were assessed (FIG. 12). The screen was performed using irradiated mutant larvae. Hits from the screen were defined as those that reduced the survival of IRRADIATED larvae compared to the population of drugs being tested (approximately 80 molecules at a time) or compared to DMSO controls in the re-test. A hit could therefore act by enhancing the effect of radiation, or by simply killing larvae as a single agent, or both. To distinguish among these possibilities, hits from the screen were re-tested against larvae with and without irradiation.
(§2) In FIG. 12 survival after each treatment is expressed as the fraction of animals that emerged (“eclosed”) as viable adults. The averages have been normalized to the average fraction eclosed in no IR/drug control for the respective genotype. Error bars extend beyond fractional survival of 1.0 simply because of normalization. (A-C) Fraction eclosed for WT and grp and p53 mutants at 16 uM of Bouvardin, with and without IR. The data are averages of 3-8 biological replicates per sample. Dotted line on each graph denotes expected ‘fraction eclosed’ if drug and IR act additively. IR doses were 4000R for WT and grp and 3000R for p53 because of the higher radiation sensitivity of the latter. (D) Fraction eclosed for Minute mutants and yw controls after exposure to 0 (−IR) and 2000R (+IR) of X-rays. N ranged from 86-207 per genotype per treatment, in 3 biological replicates per sample. *=p<0.01; **=<0.001. 100R=1Gy. Error bar=1 standard deviation.
The activity of Bouvardin in Drosophila alone or in combination with ionizing radiation (IR) was assessed. Drug concentrations of 10-20 μM were used to approximate the conditions of the original screen. Third instar larvae were irradiated and cultured on medium containing drug. The survival of larvae was quantified 10 days later by measuring the rate of eclosion into adulthood. […]

In assay [2] the test system is wild type Drosophila larvae. Kind of assay: Drosophila larval survival to adulthood (eclosion), drug with and without IR, wild type. The class given is in vivo. The following applies: for effect on the killing effect of radiation (+IR versus +both): wild type. The protocol:
as §1, §2
The activity of Bouvardin in Drosophila alone or in combination with ionizing radiation (IR) was assessed. Drug concentrations of 10-20 μM were used to approximate the conditions of the original screen. Third instar larvae were irradiated and cultured on medium containing drug. The survival of larvae was quantified 10 days later by measuring the rate of eclosion into adulthood. […] For example, IR alone reduces the eclosion of p53 mutants to 0.63±0.05 and 10 μM of drug reduces it to 0.82±0.15. The combination of Bouvardin and IR reduces eclosion to 0.49, nearly the exact number expected (0.63±0.05×0.82±0.15=0.51±0.10) if the two treatments produced an additive effect. The expected eclosion for additive effect of drug and radiation are denoted with a white dotted line in each graph.
Wild type flies were of the Sevelin stock. Mutants have been described before. p535A-1-4 results from targeted deletion of the gene, and is maintained and used as homogygotes. grpl (Chk1 mutants) results from a p-element insertion and is a genetic null. Homozygotes of the latter were identified by the lack of GFP marker on the balancer chromosome. Minute mutants were of the genotypes y[1]w[*]; P[w[+mC]=lacW]RpS131/CyO and P[lacW]RpL36G0471 w67c23/FM7a. Because Minute mutants were in yw or w background, y1w1 (Bloomington stock #1495) was used as ‘wild type’ control in these experiments.
Feeding stage 3rd instar larvae were irradiated as previously described (2). Briefly, 120 hr old larvae were rinsed to remove food and passed through sizing sieves to obtain animals of uniform size. Larvae were placed in a Petri dish and irradiated using a TORREX X-ray generator, set at 115 kV and 5 mA (producing 2.4 Rads/sec or 1.44 Gy/min) Irradiated larvae were then cultured on cornmeal-agar media (2) containing drug or DMSO carrier. […]

For `COc1ccc(C[C@H]2C(=O)N[C@H](C)C(=O)N(C)[C@@H]3C(=O)N(C)[C@@H](Cc4ccc(O)c(c4)Oc4ccc(cc4)[C@H]3O)C(=O)N[C@@H](C)C(=O)N[C@H](C)C(=O)N2C)cc1` (stereo in doubt) [Bouvardin, bouvardin], the “manner in which drug and radiation act together” value is listed as “synergistic manner” in assay [1] and “appear to synergize” in assay [1] (listed as bouvardin). The “effect on the killing effect of radiation (+IR versus +both)” value in assay [1] (grp mutants, drug 10-20 μM) is “increased the killing effect of radiation in a statistically significant manner”; in assay [2], “not wild type”; in assay [2] (listed as bouvardin), “did not significantly reduce survival to adulthood”. In assay [2] (wild type flies, bouvardin up to 100 μM, no IR), the “effect of drug alone on survival to adulthood” value is recorded as “very little effect”.
